IC50 data for two compounds are collected here from BindingDB's records for doi:10.1016/j.bmc.2023.117534 (Zunyi Medical University, 2023).

A word on the IC50: it is the concentration at which inhibition is half-maximal.

Bounds are passed on as bounds.

Assay [1] in a line: Inhibition of wild type EGFR in mouse BaF3 cells assessed as cell growth inhibition measured after 72 hrs by CellTiter-Glo assay. (In ATP-based viability assays light output follows the ATP content of the culture.)
Assay [2] in a line: Inhibition of EGFR L858R/T790M/C797S triple mutant in human NCI-H1975 cells assessed as cell growth inhibition measured after 72 hrs by CellTiter-Glo assay.

On to `O=C(Nc1nccs1)C(c1ccccc1)N1Cc2ccccc2C1=O` (stereo not drawn), for which, in assay [1], the concentration for half-maximal inhibition (IC50) is greater than 10 µM.

In the case of `COc1cc2ncnc(NCc3ccc(NC(=O)C(c4ccccc4)N4Cc5ccccc5C4=O)cc3)c2cc1OCCCN1CCOCC1` (stereo not drawn), the IC50 in assay [1] was determined as 1.45 µM; in assay [2] it was 12.4 µM.
